Experimental data reported in ChEMBL document CHEMBL3120112, “Novel bronchodilatory quinazolines and quinoxalines: synthesis and biological evaluation” (Eur J Med Chem, 2014).
Activity calls are given as the source filed them. The calls are words filed in the database; no cut-off is given here.

What was measured:
[1] = Bronchodilatory activity in Wistar rat trachea assessed as inhibition of carbacol-induced contraction; format: functional; details: read-out: ED50 (the source's name)
Mus musculus [2] = assay: Toxicity in ICR mouse assessed as change in testicle weight at 54 mg/kg, po qd for 7 days measured every day for 7 days (0.118 +/- 0.004 g); format: organism-based; parameters: dose 54 mg/kg, route oral; details: in vivo, 168 h
Mus musculus [3] = assay: Toxicity in ICR mouse assessed as change in testicle weight at 36 mg/kg, po qd for 7 days measured every day for 7 days (0.118 +/- 0.004 g); format: organism-based; parameters: dose 36 mg/kg, route oral; details: in vivo, 168 h
Mus musculus [4] = assay: Toxicity in ICR mouse assessed as change in testicle weight at 18 mg/kg, po qd for 7 days measured every day for 7 days (0.118 +/- 0.004 g); format: organism-based; parameters: dose 18 mg/kg, route oral; details: in vivo, 168 h
Mus musculus [5] = assay: Toxicity in ICR mouse assessed as change in heart weight at 54 mg/kg, po qd for 7 days measured every day for 7 days (0.155 +/- 0.002 g); format: organism-based; parameters: dose 54 mg/kg, route oral; details: in vivo, 168 h
Mus musculus [6] = assay: Toxicity in ICR mouse assessed as change in heart weight at 36 mg/kg, po qd for 7 days measured every day for 7 days (0.155 +/- 0.002 g); format: organism-based; parameters: dose 36 mg/kg, route oral; details: in vivo, 168 h
Mus musculus [7] = assay: Toxicity in ICR mouse assessed as change in heart weight at 18 mg/kg, po qd for 7 days measured every day for 7 days (0.155 +/- 0.002 g); format: organism-based; parameters: dose 18 mg/kg, route oral; details: in vivo, 168 h
Mus musculus [8] = assay: Toxicity in ICR mouse assessed as change in liver weight at 54 mg/kg, po qd for 7 days measured every day for 7 days (1.772 +/- 0.120 g); format: organism-based; parameters: dose 54 mg/kg, route oral; details: in vivo, 168 h
Mus musculus [9] = assay: Toxicity in ICR mouse assessed as change in liver weight at 18 mg/kg, po qd for 7 days measured every day for 7 days (1.772 +/- 0.120 g); format: organism-based; parameters: dose 18 mg/kg, route oral; details: in vivo, 168 h
Mus musculus [10] = assay: Toxicity in ICR mouse assessed as change in spleen weight at 54 mg/kg, po qd for 7 days measured every day for 7 days (0.143 +/- 0.033 g); format: organism-based; parameters: dose 54 mg/kg, route oral; details: in vivo, 168 h
Mus musculus [11] = assay: Toxicity in ICR mouse assessed as change in spleen weight at 36 mg/kg, po qd for 7 days measured every day for 7 days (0.143 +/- 0.033 g); format: organism-based; parameters: dose 36 mg/kg, route oral; details: in vivo, 168 h
Mus musculus [12] = assay: Toxicity in ICR mouse assessed as change in spleen weight at 18 mg/kg, po qd for 7 days measured every day for 7 days (0.143 +/- 0.033 g); format: organism-based; parameters: dose 18 mg/kg, route oral; details: in vivo, 168 h
Mus musculus [13] = assay: Toxicity in ICR mouse assessed as change in kidney weight at 54 mg/kg, po qd for 7 days measured every day for 7 days (0.248 +/- 0.026 g); format: organism-based; parameters: dose 54 mg/kg, route oral; details: in vivo, 168 h
Mus musculus [14] = assay: Toxicity in ICR mouse assessed as change in kidney weight at 36 mg/kg, po qd for 7 days measured every day for 7 days (0.248 +/- 0.026 g); format: organism-based; parameters: dose 36 mg/kg, route oral; details: in vivo, 168 h
Mus musculus [15] = assay: Toxicity in ICR mouse assessed as change in kidney weight at 18 mg/kg, po qd for 7 days measured every day for 7 days (0.248 +/- 0.026 g); format: organism-based; parameters: dose 18 mg/kg, route oral; details: in vivo, 168 h
[16] = Acute toxicity in ip dosed ICR mouse; format: organism-based; details: in vivo
Mus musculus [17] = assay: Toxicity in ICR mouse assessed as change in liver weight at 36 mg/kg, po qd for 7 days measured every day for 7 days (1.772 +/- 0.120 g); format: organism-based; parameters: dose 36 mg/kg, route oral; details: in vivo, 168 h
[18] = Bronchodilatory activity in guinea pig trachea assessed as inhibition of contraction; format: functional, tissue-based
Rattus norvegicus [19] = species on record: Rattus norvegicus; assay: Antagonist activity at rat trachea muscarinic acetylcholine receptor assessed as inhibition of carbachol-induced contraction preincubated for 10 mins followed by agonist challenge
Cavia porcellus = species on record: Cavia porcellus; assay: Agonist activity at guinea pig trachea beta adrenergic receptor assessed as relaxation effect in presence of propranolol
Trachea = assay: Potency index, ratio of theophylline ED50 to compound ED50 for bronchodilatory activity in Wistar rat trachea; format: functional
Mus musculus [20] = assay: Toxicity in ICR mouse assessed as change in body weight at 18 to 54 mg/kg, po qd for 7 days measured every day for 7 days; format: organism-based; parameters: dose 18-54 mg/kg, route oral; details: in vivo, 168 h
Mus musculus [21] = assay: Toxicity in ICR mouse assessed as mortality at 18 to 54 mg/kg, po qd for 7 days measured every day for 7 days; format: organism-based; parameters: dose 18-54 mg/kg, route oral; details: in vivo, 168 h
Rattus norvegicus [22] = species on record: Rattus norvegicus; details: Wistar, Trachea

EC50 [1] [µM] | SMILES | further results
601 | O=c1c2ccccc2ncn1CCC[N+]1([O-])CCCCC1 | –
191 | c1ccc2c(NCCN3CCCCC3)ncnc2c1 | –
43 | O=c1cnc2ccccc2n1CCCN1CCCCC1 | –
2860 | O=c1c2ccccc2nc2n1CC[C@@H]2O | –
45.3 | O=c1c2ccccc2[n+]([O-])cn1CCCN1CCCCC1 | –
747 | Cn1cnc2ccccc2c1=O | –
562 | O=c1c2ccccc2ncn1CCN1CCCC1 | –
258 | c1ccc2c(NCCN3CCOCC3)ncnc2c1 | –
173 | CN1CCCC1CCNc1ncnc2ccccc12 (centres undefined) | –
104 | CN1CCCC1CCn1cnc2ccccc2c1=O (centres undefined) | –
76.6 | CN1CCCC1CCSc1ncnc2ccccc12 (centres undefined) | –
946 | O=c1ccn(CCCN2CCCCC2)c2ccccc12 | –
132 | c1ccc2c(OCCCN3CCCCC3)ncnc2c1 | –
1900 | O=c1c2ccccc2ncn1CCN1CCOCC1 | –
58.7 | c1ccc2c(SCCCN3CCCCC3)ccnc2c1 | –
440 | CN(C)CCn1cnc2ccccc2c1=O | –
301 | c1ccc2c(OCCN3CCCCC3)ncnc2c1 | –
178 | O=c1c2ccccc2ncn1CCN1CCCCC1 | –

Second part, the compound before the results:

SMILES | EC50 [1] [µM] | further results
Cl.c1ccc2c(SCCCN3CCCCC3)ncnc2c1 | – | Activity (Mus musculus [2]): 0.115 g; Activity (Mus musculus [3]): 0.116 g; Activity (Mus musculus [4]): 0.122 g; Activity (Mus musculus [5]): 0.144 g; Activity (Mus musculus [6]): 0.154 g; Activity (Mus musculus [7]): 0.146 g; Activity (Mus musculus [8]): 1.64 g; Activity (Mus musculus [9]): 1.762 g; Activity (Mus musculus [10]): 0.131 g; Activity (Mus musculus [11]): 0.147 g; Activity (Mus musculus [12]): 0.134 g; Activity (Mus musculus [13]): 0.242 g; Activity (Mus musculus [14]): 0.238 g; Activity (Mus musculus [15]): 0.24 g; LD50 [16]: 89.1 mg/kg; Activity (Mus musculus [17]): 1.679 g
CN(C)CCSc1ncnc2ccccc12 | 65.3 | –
Cn1c(=O)c2nc[nH]c2n(C)c1=O [THEOPHYLLINE] | 2090 | –
COc1cc2nc3n(c(=O)c2cc1OC)CCCCC3 | – | EC50 [18]: 73 µM
c1ccc2c(SCCCN3CCCCC3)ncnc2c1 [listing 1 of 2 here] | – | Activity (Rattus norvegicus [19]): Active; Activity (Cavia porcellus): Active
Cl.O=c1c2ccccc2ncn1CCCN1CCCCC1 | – | LD50 [16]: 162 mg/kg
O=c1[nH]cnc2ccccc12 [QUINAZOLINONE] | 810 | –
Cl.c1ccc2nc(SCCCN3CCCCC3)cnc2c1 | 3.26 | LD50 [16]: 104 mg/kg; Activity (Rattus norvegicus [19]): Active; Activity (Cavia porcellus): Active
O=c1c2ccccc2ncn1CCCN1CCCCC1 | 28.3 | Ratio ED50 (Trachea): 100
c1ccc2c(SCCCN3CCCCC3)ncnc2c1 [listing 2 of 2 here] | 3.42 | Activity (Mus musculus [20]): Non-toxic; Activity (Mus musculus [21]): Non-toxic
O=C(O)Cn1cnc2ccccc2c1=O | – | ED50 (Rattus norvegicus [22]): inactive
O=c1ccncn1CCCN1CCCCC1 | 1120 | –
O=c1ccn(CCCN2CCCCC2)cc1 | 4230 | –
CN(C)CCOc1ncnc2ccccc12 | 162 | –
